Converted amounts (≈) assume the structure as drawn. Starred links: 1 amine or outer side, 2 acyl side, 3 side chain; linkers in the order of their positions; H or OH if unused. Positions of bridges follow the written chain, without caps; N, C: chain ends. Residues, ends and D or L forms follow the SMILES beside them. mXylylene = c1cc(C[*:1])cc(C[*:2])c1; pXylylene = c1cc(C[*:2])ccc1C[*:1]; X1 = C(=CC[*:2])C[*:1]
Columns and labels:
[1] = 48 hours cytotoxicity assay (CellTiter-Glo), liver toxicity; assay type: cell-based, human
Procedure, shortened: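 HepG2 cells in EMEM with 10% FBS, allowed to attach 4 h, then exposed to serially diluted StAMPs or vehicle for 48 h at 37 °C. Viability read by CellTiter-Glo luminescence.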

[2] = 90 minute cytotoxicity assay (LDH release), renal toxicity; assay type: cell-based
Description: In some embodiments, a peptide provided herein has renal toxicity that is at least 10% (e.g., at least 15%, at least 20%, at least 25%, at least 30%, at least 35%, at least 40%, at least 45%, at least 50%, at least 55%, at least 60%, at least 65%, at least 65%, at least 70%, at least 75%, at least 80%, at least 85%, at least 90%, at least 95%, at least 99%) lower than the renal toxicity of the reference. The renal toxicity of a peptide can be measured in vitro using a renal proximal tubule epithelial cell (RPTEC) renal toxicity assay.
Cell culture: RPTEC were maintained in MEM media supplemented with growth factors. HEPG2 cell line was maintained in Eagle's Minimum Essential Medium (EMEM) supplemented with fetal bovine serum to a final concentration of 10%.
90 minute cytotoxicity assay: Cells were plated in a 96-well format, and after overnight incubation, media was replaced with fresh media. Serial dilutions of StAMPs from a 5 mg/mL water stock, or vehicle, were added to the cells in a final volume of 100 μl. After incubating at 37° C. for 90 min, 50 μl of cell culture media was transferred to a clear 96-well plate, incubated with 50 μl of lactate dehydrogenase (LDH) assay reagent for 10 min, and absorbance measured at 490 nm on a microplate reader.
Renal toxicity was measured after 90 minutes of incubation, while liver toxicity was measured after 48 hours of incubation with StAMPs. N/A=not tested.

| Structure (SMILES) | IC50 [1] [µg/mL] | IC50 [2] [µg/mL] |
| --- | --- | --- |
| CC[C@H](C)[C@H](NC(=O)CN)C(=O)N[C@@H](Cc1ccccc1)C(=O)N[C@@H](CO)C(=O)N[C@@H](CCCCN)C(=O)N[C@@H](CC(C)C)C(=O)N[C@@H](C)C(=O)NCC(=O)N[C@@H](CCCCN)C(=O)N[C@@H](CCCCN)C(=O)N[C@H](C(=O)N[C@@H](CCCCN)C(=O)N[C@@H](CC(N)=O)C(=O)N[C@H]1CSCc2ccc(cc2)CSC[C@@H](C(=O)N[C@@H](CC(C)C)C(=O)N[C@@H](CCCCN)C(=O)NCC(N)=O)NC(=O)[C@H](CO)NC(=O)[C@H]([C@@H](C)CC)NC(=O)[C@H](CC(C)C)NC1=O)[C@@H](C)CC [compound 27] (H-GIFSKLAGKKIKNCLISCLKG-NH2; linker 14-18 via pXylylene; N-terminus assumed) | > 200 | > 200 |
| CC[C@H](C)[C@H](NC(=O)CN)C(=O)N[C@@H](Cc1ccccc1)C(=O)N[C@@H](CO)C(=O)N[C@@H](CCCCN)C(=O)N[C@@H](CC(C)C)C(=O)N[C@@H](C)C(=O)NCC(=O)N[C@@H](CCCCN)C(=O)N[C@@H](CCCCN)C(=O)N[C@H](C(=O)N[C@@H](CCCCN)C(=O)N[C@@H](CC(N)=O)C(=O)N[C@H]1CSCC=CCSC[C@@H](C(=O)N[C@@H](CC(C)C)C(=O)N[C@@H](CCCCN)C(=O)NCC(N)=O)NC(=O)[C@H](CO)NC(=O)[C@H]([C@@H](C)CC)NC(=O)[C@H](CC(C)C)NC1=O)[C@@H](C)CC [compound 28] (H-GIFSKLAGKKIKNCLISCLKG-NH2; linker 14-18 via X1; N-terminus assumed) | > 200 | > 200 |
| CC[C@H](C)[C@H](NC(=O)CN)C(=O)N[C@@H](Cc1ccccc1)C(=O)N[C@@H](CO)C(=O)N[C@@H](CCCCN)C(=O)N[C@@H](CC(C)C)C(=O)N[C@@H](C)C(=O)NCC(=O)N[C@@H](CCCCN)C(=O)N[C@@H](CCCCN)C(=O)N[C@H](C(=O)N[C@@H](CCCCN)C(=O)N[C@@H](CC(N)=O)C(=O)N[C@@H](CC(C)C)C(=O)N[C@@H](CC(C)C)C(=O)N[C@H]1CSCC=CCSC[C@@H](C(=O)NCC(N)=O)NC(=O)[C@H](CC(C)C)NC(=O)CNC(=O)[C@H](CO)NC1=O)[C@@H](C)CC [compound 34] (H-GIFSKLAGKKIKNLLCSGLCG-NH2; linker 16-20 via X1; N-terminus assumed) | 119 (≈ 54 µM) | ~200 (≈ 90.8 µM) |
| CC[C@H](C)[C@H](NC(=O)CN)C(=O)N[C@@H](Cc1ccccc1)C(=O)N[C@@H](CO)C(=O)N[C@@H](CCCCN)C(=O)N[C@@H](CC(C)C)C(=O)N[C@@H](C)C(=O)NCC(=O)N[C@@H](CCCCN)C(=O)N[C@@H](CCCCN)C(=O)N[C@H](C(=O)N[C@@H](CCCCN)C(=O)N[C@@H](CC(N)=O)C(=O)N[C@@H](CC(C)C)C(=O)N[C@@H](CC(C)C)C(=O)N[C@H](C(=O)N[C@H]1CSCC=CCSC[C@@H](C(N)=O)NC(=O)[C@H](CCCCN)NC(=O)[C@H](CC(C)C)NC(=O)CNC1=O)[C@@H](C)CC)[C@@H](C)CC [compound 35] (H-GIFSKLAGKKIKNLLICGLKC-NH2; linker 17-21 via X1; N-terminus assumed) | ~200 (≈ 87 µM) | ~200 (≈ 87 µM) |
| CC[C@H](C)[C@H](NC(=O)[C@H](CC(C)C)NC(=O)[C@H](CC(C)C)NC(=O)[C@H](CC(N)=O)NC(=O)[C@H](CCCCN)NC(=O)[C@@H](NC(=O)[C@H](CCCCN)NC(=O)[C@H](CCCCN)NC(=O)CNC(=O)[C@H](C)NC(=O)[C@H](CC(C)C)NC(=O)[C@@H]1CSCc2cccc(c2)CSC[C@H](N)C(=O)N[C@@H]([C@@H](C)CC)C(=O)N[C@@H](Cc2ccccc2)C(=O)N[C@@H](CO)C(=O)N1)[C@@H](C)CC)C(=O)N[C@@H](CO)C(=O)NCC(=O)N[C@@H](CC(C)C)C(=O)N[C@@H](CCCCN)C(=O)NCC(N)=O [compound 36] (H-CIFSCLAGKKIKNLLISGLKG-NH2; linker 1-5 via mXylylene; N-terminus assumed) | 75 (≈ 32.5 µM) | ~200 (≈ 86.7 µM) |
| CC[C@H](C)[C@H](NC(=O)[C@H](CC(C)C)NC(=O)[C@H](CC(C)C)NC(=O)[C@H](CC(N)=O)NC(=O)[C@H](CCCCN)NC(=O)[C@@H](NC(=O)[C@H](CCCCN)NC(=O)[C@H](CCCCN)NC(=O)CNC(=O)[C@H](C)NC(=O)[C@H](CC(C)C)NC(=O)[C@@H]1CSCc2ccc(cc2)CSC[C@H](N)C(=O)N[C@@H]([C@@H](C)CC)C(=O)N[C@@H](Cc2ccccc2)C(=O)N[C@@H](CO)C(=O)N1)[C@@H](C)CC)C(=O)N[C@@H](CO)C(=O)NCC(=O)N[C@@H](CC(C)C)C(=O)N[C@@H](CCCCN)C(=O)NCC(N)=O [compound 37] (H-CIFSCLAGKKIKNLLISGLKG-NH2; linker 1-5 via pXylylene; N-terminus assumed) | 33 (≈ 14.3 µM) | 140 (≈ 60.7 µM) |
| CC[C@H](C)[C@H](NC(=O)[C@H](CC(C)C)NC(=O)[C@H](CC(C)C)NC(=O)[C@H](CC(N)=O)NC(=O)[C@H](CCCCN)NC(=O)[C@@H](NC(=O)[C@H](CCCCN)NC(=O)[C@H](CCCCN)NC(=O)CNC(=O)[C@H](C)NC(=O)[C@H](CC(C)C)NC(=O)[C@@H]1CSCC=CCSC[C@H](N)C(=O)N[C@@H]([C@@H](C)CC)C(=O)N[C@@H](Cc2ccccc2)C(=O)N[C@@H](CO)C(=O)N1)[C@@H](C)CC)C(=O)N[C@@H](CO)C(=O)NCC(=O)N[C@@H](CC(C)C)C(=O)N[C@@H](CCCCN)C(=O)NCC(N)=O [compound 38] (H-CIFSCLAGKKIKNLLISGLKG-NH2; linker 1-5 via X1; N-terminus assumed) | > 200 | > 200 |
| CC[C@H](C)[C@H](NC(=O)CN)C(=O)N[C@H]1CSCc2cccc(c2)CSC[C@@H](C(=O)NCC(=O)N[C@@H](CCCCN)C(=O)N[C@@H](CCCCN)C(=O)N[C@H](C(=O)N[C@@H](CCCCN)C(=O)N[C@@H](CC(N)=O)C(=O)N[C@@H](CC(C)C)C(=O)N[C@@H](CC(C)C)C(=O)N[C@H](C(=O)N[C@@H](CO)C(=O)NCC(=O)N[C@@H](CC(C)C)C(=O)N[C@@H](CCCCN)C(=O)NCC(N)=O)[C@@H](C)CC)[C@@H](C)CC)NC(=O)[C@H](CC(C)C)NC(=O)[C@H](CCCCN)NC(=O)[C@H](CO)NC1=O [compound 39] (H-GICSKLCGKKIKNLLISGLKG-NH2; linker 3-7 via mXylylene) | 103 (≈ 45.3 µM) | 113 (≈ 49.7 µM) |
| CC[C@H](C)[C@H](NC(=O)CN)C(=O)N[C@H]1CSCc2ccc(cc2)CSC[C@@H](C(=O)NCC(=O)N[C@@H](CCCCN)C(=O)N[C@@H](CCCCN)C(=O)N[C@H](C(=O)N[C@@H](CCCCN)C(=O)N[C@@H](CC(N)=O)C(=O)N[C@@H](CC(C)C)C(=O)N[C@@H](CC(C)C)C(=O)N[C@H](C(=O)N[C@@H](CO)C(=O)NCC(=O)N[C@@H](CC(C)C)C(=O)N[C@@H](CCCCN)C(=O)NCC(N)=O)[C@@H](C)CC)[C@@H](C)CC)NC(=O)[C@H](CC(C)C)NC(=O)[C@H](CCCCN)NC(=O)[C@H](CO)NC1=O [compound 40] (H-GICSKLCGKKIKNLLISGLKG-NH2; linker 3-7 via pXylylene; N-terminus assumed) | 124 (≈ 54.5 µM) | 117 (≈ 51.4 µM) |
| CC[C@H](C)[C@H](NC(=O)CN)C(=O)N[C@@H](Cc1ccccc1)C(=O)N[C@@H](CO)C(=O)N[C@@H](CCCCN)C(=O)N[C@H]1CSCc2cccc(c2)CSC[C@@H](C(=O)N[C@H](C(=O)N[C@@H](CCCCN)C(=O)N[C@@H](CC(N)=O)C(=O)N[C@@H](CC(C)C)C(=O)N[C@@H](CC(C)C)C(=O)N[C@H](C(=O)N[C@@H](CO)C(=O)NCC(=O)N[C@@H](CC(C)C)C(=O)N[C@@H](CCCCN)C(=O)NCC(N)=O)[C@@H](C)CC)[C@@H](C)CC)NC(=O)[C@H](CCCCN)NC(=O)CNC(=O)[C@H](C)NC1=O [compound 41] (H-GIFSKCAGKCIKNLLISGLKG-NH2; linker 6-10 via mXylylene; N-terminus assumed) | 21 (≈ 9.33 µM) | 58 (≈ 25.8 µM) |
| CC[C@H](C)[C@H](NC(=O)CN)C(=O)N[C@@H](Cc1ccccc1)C(=O)N[C@@H](CO)C(=O)N[C@@H](CCCCN)C(=O)N[C@@H](CC(C)C)C(=O)N[C@@H](C)C(=O)NCC(=O)N[C@H]1CSCc2cccc(c2)CSC[C@@H](C(=O)N[C@@H](CC(C)C)C(=O)N[C@@H](CC(C)C)C(=O)N[C@H](C(=O)N[C@@H](CO)C(=O)NCC(=O)N[C@@H](CC(C)C)C(=O)N[C@@H](CCCCN)C(=O)NCC(N)=O)[C@@H](C)CC)NC(=O)[C@H](CCCCN)NC(=O)[C@H]([C@@H](C)CC)NC(=O)[C@H](CCCCN)NC1=O [compound 42] (H-GIFSKLAGCKIKCLLISGLKG-NH2; linker 9-13 via mXylylene; N-terminus assumed) | > 200 | > 200 |
| CC[C@H](C)[C@H](NC(=O)CN)C(=O)N[C@@H](Cc1ccccc1)C(=O)N[C@@H](CO)C(=O)N[C@@H](CCCCN)C(=O)N[C@@H](CC(C)C)C(=O)N[C@@H](C)C(=O)NCC(=O)N[C@H]1CSCC=CCSC[C@@H](C(=O)N[C@@H](CC(C)C)C(=O)N[C@@H](CC(C)C)C(=O)N[C@H](C(=O)N[C@@H](CO)C(=O)NCC(=O)N[C@@H](CC(C)C)C(=O)N[C@@H](CCCCN)C(=O)NCC(N)=O)[C@@H](C)CC)NC(=O)[C@H](CCCCN)NC(=O)[C@H]([C@@H](C)CC)NC(=O)[C@H](CCCCN)NC1=O [compound 43] (H-GIFSKLAGCKIKCLLISGLKG-NH2; linker 9-13 via X1; N-terminus assumed) | > 200 | > 200 |

— patent publication US20240391965A1, “STAPLED ANTIMICROBIAL PEPTIDES (STAMPS) AND USES THEREOF” (Lytica Therapeutics, Inc., priority 2021, published 2024)
